{"source": "patent US10214741B2", "about": "“Methods and compositions for inhibiting retinopathy of prematurity” (University of Utah Research Foundation, priority 2014, dated 2019)", "key": {"rat ROP model": {"tested_on": "rat ROP model", "experiment": "Lectin-stained retinal flat mounts, IVNV and AVA, rat ROP model (rat 50/10 OIR model)", "format": "in vivo"}, "p-VEGFR2": {"target": "T1, p-VEGFR2 (Homo sapiens, UniProt P35968)", "T1 construct": "Dissected retinas and hRMVECs were lysed in radioimmunoprecipitation assay buffer; host or cells: hRMVECs", "T1 sequence (P35968 20-1356)": "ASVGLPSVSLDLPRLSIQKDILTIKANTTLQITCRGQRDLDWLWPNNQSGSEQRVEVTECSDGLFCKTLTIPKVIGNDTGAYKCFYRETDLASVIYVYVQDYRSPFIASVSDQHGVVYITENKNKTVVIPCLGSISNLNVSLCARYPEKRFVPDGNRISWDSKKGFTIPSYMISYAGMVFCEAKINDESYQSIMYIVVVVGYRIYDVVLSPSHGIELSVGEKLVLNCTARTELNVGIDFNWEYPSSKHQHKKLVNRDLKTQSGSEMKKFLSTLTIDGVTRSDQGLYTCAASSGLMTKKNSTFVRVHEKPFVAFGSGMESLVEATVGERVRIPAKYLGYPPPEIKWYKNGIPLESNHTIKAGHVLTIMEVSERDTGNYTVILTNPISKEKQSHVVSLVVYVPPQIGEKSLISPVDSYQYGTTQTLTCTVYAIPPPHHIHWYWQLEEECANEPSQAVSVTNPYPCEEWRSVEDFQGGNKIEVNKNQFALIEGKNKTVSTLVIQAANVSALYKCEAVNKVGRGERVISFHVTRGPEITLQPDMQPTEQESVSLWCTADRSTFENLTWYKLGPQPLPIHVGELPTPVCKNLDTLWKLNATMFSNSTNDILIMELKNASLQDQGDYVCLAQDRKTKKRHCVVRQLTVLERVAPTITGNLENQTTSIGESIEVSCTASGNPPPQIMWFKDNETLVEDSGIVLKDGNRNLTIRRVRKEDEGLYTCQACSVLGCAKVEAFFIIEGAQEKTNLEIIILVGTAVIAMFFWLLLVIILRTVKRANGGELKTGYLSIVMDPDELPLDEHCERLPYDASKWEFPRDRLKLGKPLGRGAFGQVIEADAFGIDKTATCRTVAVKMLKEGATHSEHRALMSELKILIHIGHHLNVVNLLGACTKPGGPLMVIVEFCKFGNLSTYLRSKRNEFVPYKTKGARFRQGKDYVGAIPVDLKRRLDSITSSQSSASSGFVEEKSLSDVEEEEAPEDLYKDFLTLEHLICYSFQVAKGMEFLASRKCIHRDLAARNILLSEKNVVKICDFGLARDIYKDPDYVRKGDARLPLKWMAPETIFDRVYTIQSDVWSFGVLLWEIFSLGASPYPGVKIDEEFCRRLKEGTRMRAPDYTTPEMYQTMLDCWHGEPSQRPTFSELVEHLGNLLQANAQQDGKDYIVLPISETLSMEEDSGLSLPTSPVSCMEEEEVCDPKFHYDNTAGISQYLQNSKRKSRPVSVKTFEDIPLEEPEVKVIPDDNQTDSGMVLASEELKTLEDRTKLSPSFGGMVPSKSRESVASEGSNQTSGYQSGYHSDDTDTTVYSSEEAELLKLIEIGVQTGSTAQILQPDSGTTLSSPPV", "experiment": "Western blot of p-VEGFR2 in hRMVECs", "format": "cell-based", "conditions": "30 minutes of EPO treatment", "source_text": "For siRNA transfection, hRMVECs at 70% confluency were transfected in six-well plates with siRNAs targeting human EPOR, VEGFR2, or STAT3 (Life Technologies, Carlsbad, Calif.) using Lipofectamine 2000 reagent (Invitrogen by Life Technologies, Carlsbad, Calif.). […]\nDissected retinas and hRMVECs were lysed in radioimmunoprecipitation assay buffer with 1:100 protease inhibitors (Roche Diagnostics, Indianapolis, Ind.) and 2 mmol/L sodium orthovanadate and were homogenized and centrifuged at 13,000 rpm (15,700 g) for 10 minutes at 4° C. Total protein in the supernatant fluid was quantified by a bicinchoninic acid assay (Pierce BCA; Thermo Fisher Scientific, Waltham, Mass.). […] Blots were visualized, and the relative densities of bands were calculated as described herein, using gel analysis software (UN-SCAN-IT gel, version 6.1; Silk Scientific, Orem, Utah). Relative activities were calculated as the ratio of phosphorylated to total protein or to β-actin and are expressed as fold difference compared with control. […]"}, "p-EPOR": {"tested_on": "p-EPOR", "experiment": "Western blot of p-EPOR in hRMVECs", "format": "cell-based, human", "conditions": "30 minutes of EPO treatment", "text": "(§1) hRMVECs (Cell Systems, Kirkland, Wash.) were maintained in EGM-2 endothelial growth medium (Lonza, Walkers-ville, MD) supplemented with 5% fetal bovine serum. Cells of passage 3 to 5 were used for experiments. […]\n(§2) For siRNA transfection, hRMVECs at 70% confluency were transfected in six-well plates with siRNAs targeting human EPOR, VEGFR2, or STAT3 (Life Technologies, Carlsbad, Calif.) using Lipofectamine 2000 reagent (Invitrogen by Life Technologies, Carlsbad, Calif.). A silencer selective negative control siRNA was used as control.\n(§3) For cell proliferation assays, hRMVECs were plated into 96-well plates at a density of 5000 cells per well. […] Cell number was measured with a Vybrant MTT cell proliferation assay kit (Life Technologies, Carlsbad, Calif.).\nDissected retinas and hRMVECs were lysed in radioimmunoprecipitation assay buffer with 1:100 protease inhibitors (Roche Diagnostics, Indianapolis, Ind.) and 2 mmol/L sodium orthovanadate and were homogenized and centrifuged at 13,000 rpm (15,700 g) for 10 minutes at 4° C. Total protein in the supernatant fluid was quantified by a bicinchoninic acid assay (Pierce BCA; Thermo Fisher Scientific, Waltham, Mass.). […] Blots were visualized, and the relative densities of bands were calculated as described herein, using gel analysis software (UN-SCAN-IT gel, version 6.1; Silk Scientific, Orem, Utah). […]"}, "EPOR": {"tested_on": "EPOR", "experiment": "EPOR expression in hRMVECs (qPCR, Western blot)", "format": "cell-based, human", "conditions": "overnight treatment; 20 ng/mL VEGFA or 10 IU/mL EPO; vs PBS", "text": "as §1, §2\nTotal RNA of cells was extracted by TRI Reagent (Sigma-Aldrich, St. Louis, Mo.). For dissected retinas, total RNA was extracted using an RNeasy mini kit (Qiagen, Valencia, Calif.). RNA was quantified using a NanoDrop spectrophotometer (Thermo Fisher Scientific, Waltham, Mass.). cDNA was generated with the use of a high-capacity cDNA archive kit (Life Technologies, Carlsbad, Calif.). qPCR was performed on a Mastercycler ep realplex system (Eppendorf, Hauppauge, N.Y.) with the use of SYBR Green master mix (Roche Diagnostics, Indianapolis, Ind.) and primers synthesized by the core research facility of the University of Utah. Expression levels for VEGFA were normalized to the mean value of internal control β-actin. […]\nDissected retinas and hRMVECs were lysed in radioimmunoprecipitation assay buffer with 1:100 protease inhibitors (Roche Diagnostics, Indianapolis, Ind.) and 2 mmol/L sodium orthovanadate and were homogenized and centrifuged at 13,000 rpm (15,700 g) for 10 minutes at 4° C. Total protein in the supernatant fluid was quantified by a bicinchoninic acid assay (Pierce BCA; Thermo Fisher Scientific, Waltham, Mass.). […] Blots were visualized, and the relative densities of bands were calculated as described herein, using gel analysis software (UN-SCAN-IT gel, version 6.1; Silk Scientific, Orem, Utah). Relative activities were calculated as the ratio of phosphorylated to total protein or to β-actin and are expressed as fold difference compared with control. At least six samples from each group were measured and analyzed."}, "p-STAT3": {"tested_on": "p-STAT3", "experiment": "Western blot of p-STAT3 in hRMVECs", "format": "cell-based, human", "conditions": "VEGFA stimulation", "method": "hRMVECs (Cell Systems, Kirkland, Wash.) were maintained in EGM-2 endothelial growth medium (Lonza, Walkers-ville, MD) supplemented with 5% fetal bovine serum. Cells of passage 3 to 5 were used for experiments. Confluent cells in six-well plates were starved for 16 hours and then treated with 20 ng/mL VEGFA or PBS for 24 hours for qPCR or 30 minutes for p-VEGFR2, p-EPOR, and p-STAT3.\nas §2, §3\nDissected retinas and hRMVECs were lysed in radioimmunoprecipitation assay buffer with 1:100 protease inhibitors (Roche Diagnostics, Indianapolis, Ind.) and 2 mmol/L sodium orthovanadate and were homogenized and centrifuged at 13,000 rpm (15,700 g) for 10 minutes at 4° C. Total protein in the supernatant fluid was quantified by a bicinchoninic acid assay (Pierce BCA; Thermo Fisher Scientific, Waltham, Mass.). […] At least six samples from each group were measured and analyzed."}, "NOX4": {"tested_on": "NOX4", "experiment": "ROS generation mediated by NOX4 in hRMVECs", "format": "cell-based, human"}, "severe ROP": {"tested_on": "severe ROP", "conditions": "weekly subcutaneous injections; preterm infants (n=102); cited from earlier work"}, "hRMVECs [1]": {"tested_on": "hRMVECs", "experiment": "VEGFA-induced hRMVEC proliferation assay (MTT)", "format": "cell-based, human", "conditions": "20 ng/mL VEGFA 24 hours; SU5416 5 μmol/L, AG490 10 μmol/L, siRNA transfection", "method": "as §2\nFor cell proliferation assays, hRMVECs were plated into 96-well plates at a density of 5000 cells per well. At 24 hours after transfection with siRNA, cells were starved in serum-free medium for 24 hours and then were incubated with 20 ng/mL VEGFA or control PBS for another 24 hours. To inhibit VEGFR2 or STAT3 activation, cells were pretreated with 5 μmol/L of the VEGFR2 tryosine-kinase inhibitor semaxanib (SU5416), 10 μmol/L of the JAK2/STAT3 inhibitor AG490 (both from Sigma-Aldrich, St. Louis, Mo.), or dimethyl sulfoxide (DMSO) vehicle control for 1 hour before addition of VEGFA. Cell number was measured with a Vybrant MTT cell proliferation assay kit (Life Technologies, Carlsbad, Calif.)."}, "hRMVECs [2]": {"tested_on": "hRMVECs", "experiment": "TUNEL+ cells in hRMVECs", "format": "cell-based, human", "conditions": "vs. DMSO"}, "ROP+SO model": {"tested_on": "ROP+SO model", "experiment": "IVNV in rat ROP model rescued in 28% oxygen (ROP+SO model)", "format": "in vivo", "conditions": "intraperitoneal, p18, vs. PBS", "text": "Activation of NADPH oxidase generally requires aggregation of a NOX isoform (NOX1-5, Duox1 or 2) with membrane bound p22phox; for NOX1-3 activation, aggregation with Rac1 and cytoplasmic subunits p47phox, p67phox or homologs is also required. Few studies address oxygen effects on NADPH oxidase regulated signaling in ROP or development. Studying NADPH oxidase in vivo is also complicated, because 1) of compensation from NOX isoforms or homologs, which differ in different tissues, and 2) most inhibitors are not specific. In this example, oxygen stresses were varied by using 3 different OIR models: ROP and ROP+SO models in rat and OIR model in mouse. NADPH oxidase-induced signaling in ECs was targeted by reducing leukocyte/macrophages, which generate ROS through NADPH oxidase, or with a transgenic mouse. In rat ROP and ROP+SO models, macrophages ˜75% (FIG. 7A) were reduced with 1 uL intravitreal clodronate). […] Macrophages have multiple effects on angiogenesis including through non-NADPH oxidase mechanisms, so a more specific method was used to study NADPH oxidase-related signaling. NOX 1, 2, 4 are known to be involved in pathologic retinal angiogenesis; NOX2 is in macrophages and ECs. Therefore p47phox−/− mice were used to reduce NADPH oxidase activation from NOX 1-3. […]\n7 experiments were conducted to accomplish three specific objectives. […] Pup weights were monitored. […]"}}, "note": "“Also recorded” adds a separate entry of the source.", "data": [{"molecule": "erythropoietin [EPO]", "values": [{"measurement": "Phase II IVNV", "setting": "rat ROP model; ROP model", "result": "did not reduce Phase II IVNV"}, {"measurement": "PRVD in Phase I", "setting": "rat ROP model; delivered at early ages", "result": "restored PRVD in Phase I"}, {"measurement": "restoration of developmental retinal vascularization", "setting": "rat ROP model; exogenous", "result": 40, "unit": "%"}, {"measurement": "p-VEGFR2 level", "setting": "p-VEGFR2", "result": "did not increase p-EPOR and p-VEGFR2 levels"}, {"measurement": "p-EPOR level", "setting": "p-EPOR", "result": "did not increase p-EPOR and p-VEGFR2 levels"}, {"measurement": "EPOR protein", "setting": "EPOR", "result": "led to an increase in EPOR protein"}]}, {"molecule": "CO[C@@H]1[C@@H]2OP(=O)(O)OC[C@H]2O[C@H]1n1c(Sc2ccc(Cl)cc2)nc2c(N)ncnc21", "note": "[8CPT, 8CPT 2′OMe-cAMP]", "values": [{"measurement": "VEGFA-induced p-STAT3", "setting": "p-STAT3", "result": "inhibits VEGF (V)-induced STAT3 activation"}, {"measurement": "basal and VEGF-induced ROS generation", "setting": "NOX4", "result": "inhibits VEGF (V)-induced STAT3 activation, B) basal and VEGF-induced ROS generation"}]}, {"molecule": "darbepoietin", "values": [{"measurement": "occurrence of severe ROP", "setting": "severe ROP", "result": "neither increased nor reduced the occurrence of severe ROP"}]}, {"molecule": "N#C/C(=C/c1ccc(O)c(O)c1)C(=O)NCc1ccccc1", "note": "[AG490]", "values": [{"measurement": "VEGFA-induced hRMVEC proliferation", "setting": "hRMVECs [1]", "result": "reduced VEGFA-induced hRMVEC proliferation to baseline"}, {"measurement": "TUNEL+ cells", "setting": "hRMVECs [2]", "result": "increases TUNEL+ cells"}, {"measurement": "IVNV", "setting": "ROP+SO model", "result": "inhibited Phase II IVNV in the ROP+SO; also recorded: reduced IVNV"}]}]}
